Where “and” joins values, the source holds several entries; their conditions need not be identical. Equal entries are not always repeated. ± gives the expanded uncertainty stated by the source.
Details: Fluid (supercritical or subcritical phases), Hot wire method

[HH] [hydrogen]
Details | thermal conductivity
423.27 K, 402 kPa | 0.2431 ± 0.0054 W/m/K
473.27 K, 10065 kPa | 0.2681 ± 0.006 W/m/K and 0.2687 ± 0.006 W/m/K
473.27 K, 30123 kPa | 0.2799 ± 0.0062 W/m/K
473.27 K, 30124 kPa | 0.28 ± 0.0062 W/m/K and 0.2803 ± 0.0062 W/m/K
473.27 K, 70155 kPa | 0.3079 ± 0.0068 W/m/K
473.27 K, 70156 kPa | 0.3088 ± 0.0069 W/m/K
473.27 K, 70160 kPa | 0.3069 ± 0.0068 W/m/K
473.27 K, 97457 kPa | 0.3277 ± 0.0073 W/m/K
473.27 K, 97459 kPa | 0.3262 ± 0.0073 W/m/K
473.27 K, 97460 kPa | 0.3282 ± 0.0073 W/m/K
473.28 K, 407 kPa | 0.2609 ± 0.0058 W/m/K
473.28 K, 408 kPa | 0.261 ± 0.0058 W/m/K
473.28 K, 409 kPa | 0.2611 ± 0.0058 W/m/K
473.28 K, 5166 kPa | 0.2673 ± 0.0059 W/m/K
473.28 K, 5167 kPa | 0.267 ± 0.0059 W/m/K and 0.2671 ± 0.0059 W/m/K
473.28 K, 10065 kPa | 0.2691 ± 0.006 W/m/K
473.28 K, 50176 kPa | 0.294 ± 0.0065 W/m/K
473.28 K, 50178 kPa | 0.2937 ± 0.0065 W/m/K
473.28 K, 50179 kPa | 0.292 ± 0.0065 W/m/K
473.29 K, 408 kPa | 0.2613 ± 0.0058 W/m/K
573.26 K, 50202 kPa | 0.3283 ± 0.0073 W/m/K
573.26 K, 50208 kPa | 0.3253 ± 0.0072 W/m/K
573.26 K, 96979 kPa | 0.356 ± 0.0079 W/m/K
573.26 K, 96990 kPa | 0.3549 ± 0.0079 W/m/K
573.26 K, 97001 kPa | 0.3548 ± 0.0079 W/m/K
573.27 K, 5202 kPa | 0.3043 ± 0.0068 W/m/K and 0.3057 ± 0.0068 W/m/K and 0.3047 ± 0.0068 W/m/K
573.27 K, 10155 kPa | 0.3066 ± 0.0068 W/m/K and 0.3072 ± 0.0068 W/m/K
573.27 K, 10156 kPa | 0.3066 ± 0.0068 W/m/K
573.27 K, 30167 kPa | 0.3171 ± 0.0071 W/m/K and 0.3173 ± 0.0071 W/m/K and 0.3175 ± 0.0071 W/m/K
573.27 K, 50204 kPa | 0.3274 ± 0.0073 W/m/K
573.27 K, 70099 kPa | 0.3376 ± 0.0075 W/m/K
573.27 K, 70106 kPa | 0.3381 ± 0.0075 W/m/K
573.27 K, 70114 kPa | 0.3387 ± 0.0075 W/m/K
573.28 K, 365 kPa | 0.2934 ± 0.0065 W/m/K
573.28 K, 367 kPa | 0.2929 ± 0.0065 W/m/K
573.28 K, 369 kPa | 0.2931 ± 0.0065 W/m/K
672.87 K, 30056 kPa | 0.3514 ± 0.0078 W/m/K
672.87 K, 30063 kPa | 0.3522 ± 0.0078 W/m/K
672.87 K, 30074 kPa | 0.3514 ± 0.0078 W/m/K
672.87 K, 50096 kPa | 0.36 ± 0.008 W/m/K
672.87 K, 50118 kPa | 0.3625 ± 0.0081 W/m/K
672.87 K, 98041 kPa | 0.3854 ± 0.0086 W/m/K
672.87 K, 98074 kPa | 0.3853 ± 0.0086 W/m/K
672.87 K, 98109 kPa | 0.3873 ± 0.0086 W/m/K
672.88 K, 5137 kPa | 0.342 ± 0.0076 W/m/K
672.88 K, 5140 kPa | 0.344 ± 0.0076 W/m/K
672.88 K, 5143 kPa | 0.3429 ± 0.0076 W/m/K
672.88 K, 5147 kPa | 0.343 ± 0.0076 W/m/K
672.88 K, 10059 kPa | 0.3459 ± 0.0077 W/m/K
672.88 K, 10060 kPa | 0.3456 ± 0.0077 W/m/K
672.88 K, 10061 kPa | 0.3445 ± 0.0077 W/m/K
672.88 K, 50107 kPa | 0.3616 ± 0.008 W/m/K
672.88 K, 70012 kPa | 0.3693 ± 0.0082 W/m/K
672.88 K, 70030 kPa | 0.3711 ± 0.0083 W/m/K
672.88 K, 70044 kPa | 0.3699 ± 0.0082 W/m/K
672.89 K, 304 kPa | 0.3296 ± 0.0073 W/m/K and 0.329 ± 0.0073 W/m/K
672.89 K, 305 kPa | 0.329 ± 0.0073 W/m/K
672.89 K, 306 kPa | 0.3287 ± 0.0073 W/m/K
771.9 K, 29994 kPa | 0.3905 ± 0.0087 W/m/K
771.9 K, 30036 kPa | 0.3906 ± 0.0087 W/m/K
771.9 K, 49904 kPa | 0.3973 ± 0.0088 W/m/K
771.9 K, 49932 kPa | 0.3973 ± 0.0088 W/m/K
771.9 K, 70405 kPa | 0.408 ± 0.0092 W/m/K
771.9 K, 70444 kPa | 0.4037 ± 0.009 W/m/K
771.9 K, 70484 kPa | 0.4065 ± 0.009 W/m/K
771.9 K, 98954 kPa | 0.4176 ± 0.0093 W/m/K
771.9 K, 99008 kPa | 0.417 ± 0.0093 W/m/K
771.9 K, 99143 kPa | 0.4168 ± 0.0093 W/m/K
771.9 K, 99205 kPa | 0.4188 ± 0.0093 W/m/K
771.91 K, 5144 kPa | 0.3835 ± 0.0085 W/m/K
771.91 K, 10086 kPa | 0.3838 ± 0.0085 W/m/K
771.91 K, 10092 kPa | 0.3825 ± 0.0085 W/m/K
771.91 K, 10100 kPa | 0.3836 ± 0.0085 W/m/K
771.91 K, 10109 kPa | 0.3825 ± 0.0085 W/m/K
771.91 K, 30014 kPa | 0.3888 ± 0.0086 W/m/K
771.91 K, 30058 kPa | 0.39 ± 0.0087 W/m/K
771.91 K, 49879 kPa | 0.3964 ± 0.0088 W/m/K
771.91 K, 70520 kPa | 0.4053 ± 0.0092 W/m/K
771.92 K, 378 kPa | 0.3679 ± 0.0082 W/m/K
771.92 K, 381 kPa | 0.3675 ± 0.0082 W/m/K
771.92 K, 383 kPa | 0.3671 ± 0.0082 W/m/K
771.92 K, 386 kPa | 0.3678 ± 0.0082 W/m/K
771.92 K, 5136 kPa | 0.3832 ± 0.0085 W/m/K
771.92 K, 5140 kPa | 0.3835 ± 0.0085 W/m/K

Reference: the NIST ThermoML archive (doi:10.1007/s10765-011-1052-5)
